Results from the NIST ThermoML archive (doi:10.1021/je100765j).
Numbers after ± are expanded uncertainties.

Test: xn = mol fraction of the nth substance listed
Details: 101 kPa, Liquid; for speed of sound: Sing-around technique in a fixed-path interferometer

CCC(C)Cl (configuration not stated) [2-chlorobutane] + CC(C)OC(C)C
Details | mass density, 283.15 K [kg/m3] | mass density, 288.15 K [kg/m3] | mass density, 293.15 K [kg/m3] | speed of sound, 283.15 K [m/s] | speed of sound, 288.15 K [m/s] | speed of sound, 293.15 K [m/s] | speed of sound, 298.15 K [m/s]
x1 = 0.0519 | 740.159 ± 0.91 | 734.981 ± 0.92 | 729.792 ± 0.93 | 1068.8 ± 1.1 | 1046.5 ± 1.1 | 1024 ± 1.1 | 1001.8 ± 1.1
x1 = 0.0988 | 745.897 ± 0.89 | 740.712 ± 0.9 | 735.485 ± 0.92 | 1071.7 ± 1.1 | 1049.4 ± 1.1 | 1027.1 ± 1.1 | 1004.9 ± 1.1
x1 = 0.2006 | 758.792 ± 0.87 | 753.569 ± 0.88 | 748.303 ± 0.89 | 1078 ± 1.1 | 1055.8 ± 1.1 | 1033.7 ± 1.1 | 1011.5 ± 1.1
x1 = 0.3211 | 774.756 ± 0.83 | 769.483 ± 0.85 | 764.161 ± 0.86 | 1085.4 ± 1.1 | 1063.4 ± 1.1 | 1041.4 ± 1.1 | 1019.4 ± 1.1
x1 = 0.4201 | 788.575 ± 0.81 | 783.251 ± 0.82 | 777.889 ± 0.83 | 1091.5 ± 1.1 | 1069.7 ± 1.1 | 1047.9 ± 1.1 | 1026.1 ± 1.1
x1 = 0.532 | 804.971 ± 0.77 | 799.602 ± 0.79 | 794.197 ± 0.8 | 1098.5 ± 1.2 | 1076.9 ± 1.1 | 1055.3 ± 1.1 | 1033.8 ± 1.1
x1 = 0.6244 | 819.223 ± 0.75 | 813.814 ± 0.76 | 808.369 ± 0.77 | 1104.3 ± 1.2 | 1082.9 ± 1.1 | 1061.5 ± 1.1 | 1040.2 ± 1.1
x1 = 0.726 | 835.602 ± 0.71 | 830.144 ± 0.72 | 824.657 ± 0.73 | 1110.7 ± 1.2 | 1089.5 ± 1.1 | 1068.3 ± 1.1 | 1047.2 ± 1.1
x1 = 0.8163 | 850.907 ± 0.68 | 845.414 ± 0.69 | 839.877 ± 0.7 | 1116.3 ± 1.2 | 1095.4 ± 1.2 | 1074.4 ± 1.1 | 1053.5 ± 1.1
x1 = 0.8817 | 862.411 ± 0.66 | 856.901 ± 0.67 | 851.332 ± 0.68 | 1120.4 ± 1.2 | 1099.6 ± 1.2 | 1078.7 ± 1.1 | 1057.9 ± 1.1
x1 = 0.9634 | 877.39 ± 0.63 | 871.819 ± 0.64 | 866.214 ± 0.65 | 1125.5 ± 1.2 | 1104.9 ± 1.2 | 1084.3 ± 1.1 | 1063.7 ± 1.1
